Laboratory results published in ChEMBL document CHEMBL1153891, “Bioactivity-guided isolation of cytotoxic constituents of Brucea javanica collected in Vietnam” (2009).

Columns and labels:
[1] = tested on: Lu1; assay: Cytotoxicity against human Lu1 cells after 2 days by sulforhodamine B assay; type: functional; conditions: Lu1, 48 h, read-out: ED50 (the source's name)
[2] = tested on: LNCaP; assay: Cytotoxicity against hormone-dependent human LNCAP cells after 2 days by sulforhodamine B assay; type: functional; conditions: 48 h, read-out: ED50 (the source's name)
[3] = tested on: MCF7; assay: Cytotoxicity against human MCF7 cells after 2 days by sulforhodamine B assay; type: functional; conditions: MCF7, 48 h, read-out: ED50 (the source's name)
[4] = tested on: MDR; assay: Inhibition of MDR pump assessed as potentiation of bruceantin-induced cytotoxicity against human MCF7 cells at 20 ug/mL after 2 days by sulforhodamine B assay; type: cell-based
[5] = tested on: MDR; assay: Inhibition of MDR pump assessed as potentiation of bruceine A-induced cytotoxicity against human MCF7 cells at 20 ug/mL after 2 days by sulforhodamine B assay; type: cell-based
[6] = tested on: MCF7; assay: Cytotoxicity against human MCF7 cells after 2 days by sulforhodamine B assay in presence of 43 uM (-)-hydnocarpin; type: functional; conditions: MCF7, 48 h, read-out: ED50 (the source's name)
[7] = tested on: MCF7; assay: Ratio ED50 for human MCF7 cells to ED50 for human MCF7 cells in presence of 43 uM (-)-hydnocarpin; type: functional

Structure (SMILES) | EC50 [1] [µM] | EC50 [2] [µM] | EC50 [3] [µM] | ED50 [4] [µM] | ED50 [5] [µM] | EC50 [6] [µM] | Ratio ED50 [7]
COc1cc([C@@H]2Oc3ccc(-c4cc(=O)c5c(O)cc(O)cc5o4)cc3O[C@H]2CO)ccc1O | > 10 | > 10 | > 10 | > 10 | > 10 | – | –
CCCCCC(=O)O[C@@H]1C[C@]2(C)C(=CC[C@H]2[C@@H]2C[C@@H]([C@@H]3OC3(C)C)O[C@@H]2OC(C)=O)[C@@]2(C)[C@H]1[C@@]1(C)C=CC(=O)C(C)(C)[C@@H]1C[C@H]2OC(C)=O | > 10 | > 10 | > 10 | – | – | – | –
C/C=C(\C)C(=O)O[C@@H]1C[C@@]2(C)[C@H]([C@@H]3C[C@@H]([C@@H]4OC4(C)C)O[C@@H]3OC(C)=O)CC[C@]2(C)[C@@H]2CC=C3C(C)(C)C(=O)C[C@H](O)[C@]3(C)[C@H]21 [BRUCEAJAVANINONE A] | > 10 | > 10 | > 10 | – | – | – | –
CCCCCC(=O)O[C@@H]1C[C@]2(C)C(=CC[C@H]2[C@@H]2C[C@@H]([C@@H]3OC3(C)C)O[C@@H]2OC(C)=O)[C@]2(C)[C@H](O)C[C@H]3C(C)(C)C(=O)C=C[C@]3(C)[C@@H]12 [BRUCEAJAVANONE A] | > 10 | > 10 | > 10 | – | – | – | –
C/C=C(\C)C(=O)O[C@@H]1C[C@]2(C)C(=CC[C@H]2[C@@H]2C[C@@H]([C@@H]3OC3(C)C)O[C@@H]2OC(C)=O)[C@@]2(C)[C@H]1[C@@]1(C)C=CC(=O)C(C)(C)[C@@H]1C[C@H]2OC(C)=O [BRUCEAJAVANONE B] | > 10 | > 10 | > 10 | – | – | – | –
C/C=C(\C)C(=O)O[C@@H]1C[C@]2(C)C(=CC[C@H]2[C@@H]2C[C@@H]([C@@H]3OC3(C)C)O[C@H]2OC)[C@]2(C)[C@H](OC(C)=O)C[C@H]3C(C)(C)C(=O)C[C@H](O)[C@]3(C)[C@@H]12 [BRUCEAJAVANONE C] | > 10 | > 10 | > 10 | – | – | – | –
COC(=O)[C@@]12OC[C@]34[C@H]([C@@H](O)[C@@H]1O)[C@@]1(C)CC(=O)C(O)=C(C)[C@@H]1C[C@H]3OC(=O)[C@H](OC(=O)/C=C(\C)C(C)C)[C@@H]24 [BRUCEANTIN] | 0.012 | 0.011 | 0.002 | – | – | 0.00027 | 7.4
COC(=O)[C@@]12OC[C@]34[C@H]([C@@H](O)[C@@H]1O)[C@@]1(C)CC(=O)C(O)=C(C)[C@@H]1C[C@H]3OC(=O)[C@H](OC(=O)CC(C)C)[C@@H]24 [BRUCEINE A] | 0.079 | 0.096 | 0.015 | – | – | 0.0015 | 10
CC[C@@]1(O)C(=O)OCc2c1cc1n(c2=O)Cc2cc3ccccc3nc2-1 [CAMPTOTHECIN] | > 10 | > 10 | > 10 | – | – | – | –
CC(=O)O[C@H]1C(=O)[C@@]2(C)[C@H]([C@H](OC(=O)c3ccccc3)[C@]3(O)C[C@H](OC(=O)[C@H](O)[C@@H](NC(=O)c4ccccc4)c4ccccc4)C(C)=C1C3(C)C)[C@]1(OC(C)=O)CO[C@@H]1C[C@@H]2O [PACLITAXEL] | > 10 | > 10 | > 10 | – | – | – | –
